{
  "source": "patent US7351699B1",
  "about": "“Use of DHEA or precursors or metabolic derivatives thereof as a depigmenting agent” (L'Oreal, priority 1999, dated 2008)",
  "key": {"[1]": {"system": "pigmentation marks on the skin (back of one hand)", "test": "Clinical evaluation of pigmentation marks (visual overall score 0 to 7 by an expert)", "type": "in vivo", "settings": "gelled oil-in-water emulsion with 1% by weight DHEA, applied morning and evening for four months to the back of one hand, 20 women 55 to 70 years old, score constant on untreated hand, FIG. 1", "experimental": "(§1) A gelled oil-in-water emulsion, containing 1% by weight of DHEA as sole active agent, was tested on a group of 20 women from 55 to 70 years old. The emulsion was applied morning and evening for four months to the back of one hand.\nThe marks present on the skin were evaluated before and after treatment by visual observation made by an expert, giving the marks an overall score from 0 to 7 as a function of their number, their size and their intensity (clinical evaluation)."}, "[2]": {"system": "skin pigmentation (back of one hand)", "test": "Biophysical evaluation by colorimetry (Minolta CR200, parameter b*)", "type": "in vivo", "settings": "gelled oil-in-water emulsion with 1% by weight DHEA, applied morning and evening for four months to the back of one hand; 20 women 55 to 70 years old; decrease greater than on untreated hand; FIG. 2", "experimental": "as §1\nThey were also evaluated by colorimetry, using a Minolta CR200 […] (biophysical evaluation). This apparatus describes the colors in a three-dimensional space, using the system of coordinates L, a* and b* recommended by the International Commission on Illumination, in which L* represents the luminance or clarity of the color ([…]), a* is the separation component between green (negative) and red (positive) and is correlated to the skin erythema, and b* varies from blue (negative) to yellow (positive) and represents the skin pigmentation. This parameter b* was used to evaluate the change in the marks in the course of the treatment. It is the result of the average of six individual measurements taken per zone and per measurement period."}},
  "data": [
    {"smiles": "C[C@]12CC[C@H](O)CC1=CC[C@@H]1[C@@H]2CC[C@]2(C)C(=O)CC[C@@H]12", "note": "[DHEA, dehydroepiandrosterone]", "values": [
      {"measurement": "overall clinical score of the pigmentation marks", "setting": "[1]", "result": "improvement in the overall clinical score"},
      {"measurement": "component b of the color of the skin (skin pigmentation)", "setting": "[2]", "result": "decrease in the component b of the color of the skin"}
    ]}
  ]
}
